Measurements reported in patent US20090042969A1, “Use of Specific Trifluoromethyl Ketones for Preventing and Treating Pancreatitis” (priority 2005, published 2009).
Entries after “also recorded” stand apart in the source; their conditions may differ. Like-named read-outs stand apart in the source and are kept apart here.

Columns and labels:
pancreatic elastase = molecular target: T1, pancreatic elastase (Sus scrofa, UniProt P00772); assay: In vitro inhibitor specificity: pancreatic elastase activity; format: biochemical, porcine
T1 construct: was purified from porcine pancreas; purchased Calbiochem; host or cells: purified from porcine pancreas
Experimental: (§1) Caerulein was obtained from Pharmacia, Freiburg, Germany. Human neutrophil elastase was purchased from Calbiochem (San Diego, Calif., U.S.A.). This commercial product was purified from human serum by HPLC (protein concentration >20 units/mg of protein specific activity; in 50 mM sodium acetate pH 5.5 and 200 mM sodium chloride; purity >95%). Human myeloperoxidase was purchased from Calbiochem and purified from blood by HPLC (1 mg/10 ml protein concentration, 150 to 200 units mg protein specific protein activity, in 100 mM sodium chloride, 50 mM sodium acetate, purity >95%). Porcine pancreatic elastase was purchased from Calbiochem and was purified from porcine pancreas. […]
(§2) The trypsin activity (10 mU), myeloperoxidase activity (100 mU) and the neutrophil elastase activity (10 mU) was determined by using the specific fluorogenic substrates [CBZ-Ile-Pro-Arg]2-rhodamine 110 or [CBZ-Ala4]-aminomethylcoumarin (AMC) in 100 mM tris-HCl buffer (pH 8.0), which contained 5 mM CaCl2, 10 μM substrate (final concentration) and 10 mU of bovine trypsin in a volume of 150 μl, at an excitation wavelength of 485 nm and an emission wavelength of 530 nm or an excitation wavelength of 350 nm and an emission wavelength of 460 nm at 37° C. The initial rates of the substrate hydrolysis were measured as arbitrary fluorescence units per minute. […]

neutrophil elastase = assay: Inhibition of neutrophil elastase after oral or intravenous administration; format: in vivo
[1] = test system: caerulein-induced pancreatitis; assay: Morphological damage of the pancreas in caerulein-induced pancreatitis; format: in vivo, rat
Experimental: (§3) Male Wistar rats (140 to 250 g) were anesthetized with pentobarbital (30 mg/kg). A cannula was placed in the jugular vein, and a supramaximal concentration of caerulein (10 μg/kg per hour) was administered to the animals by infusion for four and twelve hours. […] Animals which received a saline solution as infusion and were fed with compound II through a tube served as control. Each treatment group consisted of five animals. After the exsanguination under ether anesthesia, the pancreas was quickly removed and freed of fat, and tissue blocks were fixed in 5% paraformaldehyde for the histology in paraffin-embedded sections. The largest portion of the pancreas was frozen in liquid nitrogen and stored at −80° C. for later protein analysis and for detection of the enzyme activity.
(§4) The animals were sacrificed after four and twelve hours, and pancreatic tissue, serum and lung tissue were collected for further analyses (see FIG. 2).

[2] = test system: caerulein-induced pancreatitis; assay: Myeloperoxidase activity and morphology of the lung during caerulein-induced pancreatitis; format: in vivo, rat
Experimental: as §3, §4
Pancreatitis influences not only the pancreas but also leads to a systemic inflammatory response which affects other organs such as the kidneys or the lung. […] The morphological differences in the lung tissues during caerulein-induced pancreatitis consisted of accumulations of alveolar fluid and a progressive thickening, hyperemia and neutrophil infiltration of the intraalveolar tissue. […]

cathepsin B = molecular target: T2, cathepsin B (Homo sapiens, UniProt P07858); assay: In vitro inhibitor specificity: cathepsin B activity; format: biochemical; conditions: compound II 1 nM to 1 mM
T2 construct: This commercial product was purified from human liver by HPLC; purchased Calbiochem; host or cells: purified from human liver

cathepsin L = molecular target: T3, cathepsin L (Homo sapiens, UniProt P07711); assay: In vitro inhibitor specificity: cathepsin L activity; format: biochemical; conditions: compound II 1 nM to 1 mM
T3 construct: prepared from human liver; purchased Calbiochem; host or cells: prepared from human liver

[3] = test system: caerulein-induced pancreatitis; assay: Myeloperoxidase activity in pancreatic homogenates in caerulein-induced pancreatitis; format: in vivo, rat; conditions: oral 240 mg/kg per day
Experimental: as §3, §4
To measure the myeloperoxidase (MPO) activity, the tissue was thawed and homogenized on ice in 20 mM potassium phosphate buffer (pH 7.4) and centrifuged at 20 000 g at 4° C. for 10 minutes. The pellet was resuspended in […] potassium phosphate buffer (pH 6.0) which contained 0.5% cethyltrimethylammonium bromide. […]
The original increase in the absorption at 450 nm was measured at room temperature using a Dynatech MR 5000 ELISA reader. […]

[4] = Pharmacokinetics (half-life, AUC, bioavailability); design: species or system rats, hamsters and dogs; conditions: rat, hamster, dog, in vivo
[5] = test system: caerulein-induced pancreatitis; assay: Serum amylase activity (hyperamylasemia) in caerulein-induced pancreatitis; format: in vivo, rat; conditions: oral administration; four and twelve hours of pancreatitis
Experimental: as §3, §4

myeloperoxidase = molecular target: T4, myeloperoxidase (Homo sapiens, UniProt P05164); assay: In vitro inhibitor specificity: myeloperoxidase activity; format: biochemical; conditions: compound II 1 nM to 1 mM
T4 construct: purified from blood by HPLC; purchased Calbiochem; host or cells: purified from blood
Experimental: as §1, §2

[6] = molecular target: T5, human neutrophil elastase (Homo sapiens, UniProt P08246); assay: In vitro inhibitor specificity: neutrophil elastase activity; format: biochemical
T5 construct: This commercial product was purified from human serum by HPLC; purchased Calbiochem; host or cells: purified from human serum
T5 sequence (P08246 30-267): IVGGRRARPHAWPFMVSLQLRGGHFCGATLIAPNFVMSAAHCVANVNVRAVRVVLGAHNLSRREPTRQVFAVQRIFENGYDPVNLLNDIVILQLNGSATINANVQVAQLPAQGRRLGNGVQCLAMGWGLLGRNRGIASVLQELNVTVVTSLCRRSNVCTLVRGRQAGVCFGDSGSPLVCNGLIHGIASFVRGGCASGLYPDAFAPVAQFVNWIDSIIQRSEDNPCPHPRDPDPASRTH
Experimental: Human neutrophil elastase was purchased from Calbiochem (San Diego, Calif., U.S.A.). This commercial product was purified from human serum by HPLC (protein concentration >20 units/mg of protein specific activity; in 50 mM sodium acetate pH 5.5 and 200 mM sodium chloride; purity >95%). […] Porcine pancreatic elastase was purchased from Calbiochem and was purified from porcine pancreas. The specific activity was 50 units/mg of protein in 50 mM potassium phosphate buffer, pH 7.0. […]

trypsin = molecular target: T6, trypsin (Bos taurus, UniProt P00760); assay: In vitro inhibitor specificity: trypsin activity; format: biochemical, bovine; conditions: compound II 1 nM to 1 mM
T6 sequence (P00760 24-246): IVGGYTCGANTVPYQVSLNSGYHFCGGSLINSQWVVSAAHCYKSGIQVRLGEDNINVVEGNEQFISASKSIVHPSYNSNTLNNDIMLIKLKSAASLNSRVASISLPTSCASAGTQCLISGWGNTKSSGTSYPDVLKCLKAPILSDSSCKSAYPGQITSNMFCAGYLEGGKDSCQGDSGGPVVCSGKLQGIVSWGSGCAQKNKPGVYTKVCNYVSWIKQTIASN
Experimental: The trypsin activity (10 mU), myeloperoxidase activity (100 mU) and the neutrophil elastase activity (10 mU) was determined by using the specific fluorogenic substrates [CBZ-Ile-Pro-Arg]2-rhodamine 110 or [CBZ-Ala4]-aminomethylcoumarin (AMC) in 100 mM tris-HCl buffer (pH 8.0), which contained 5 mM CaCl2, 10 μM substrate (final concentration) and 10 mU of bovine trypsin in a volume of 150 μl, at an excitation wavelength of 485 nm and an emission wavelength of 530 nm or an excitation wavelength of 350 nm and an emission wavelength of 460 nm at 37° C. The initial rates of the substrate hydrolysis were measured as arbitrary fluorescence units per minute. The cathepsin B activity (100 mU) and cathepsin L activity (100 mU) were then determined in 0.25 M sodium acetate buffer (pH 5.0), which contained 2 mM EDTA 1 mM DTT, 10 μM of the specific substrate CBZ-[Arg]2-aminomethylcoumarin or 10 μM [CBZ-Phe-Arg]-rhodamine 110 (final concentration) in a final volume of 150 μl, at an excitation wavelength of 350 nm and an emission wavelength of 460 nm or 485 nm and an emission wavelength of 530 nm at 37° C.
The results were calculated in percent of the initial enzyme activity (Kukor et al., 2002).

[7] = test system: caerulein-induced pancreatitis; assay: Pancreatic water content (edema) in caerulein-induced pancreatitis; format: in vivo, rat; conditions: oral 240 mg/kg per day
Experimental: as §3, §4
Determination of the pancreatic water content: the water content of the pancreas was determined by comparing the freshly obtained tissue (wet weight) with the weight of the same sample after drying (dry weight). In order to ensure complete drying, the tissue was incubated at […] for 24 hours, a constant weight being reached. The results were represented as percentage of the difference between the wet weight and the dry weight divided by the original wet weight.

[8] = compound II together with caerulein

T4 sequence (P05164 279-745 limits assumed): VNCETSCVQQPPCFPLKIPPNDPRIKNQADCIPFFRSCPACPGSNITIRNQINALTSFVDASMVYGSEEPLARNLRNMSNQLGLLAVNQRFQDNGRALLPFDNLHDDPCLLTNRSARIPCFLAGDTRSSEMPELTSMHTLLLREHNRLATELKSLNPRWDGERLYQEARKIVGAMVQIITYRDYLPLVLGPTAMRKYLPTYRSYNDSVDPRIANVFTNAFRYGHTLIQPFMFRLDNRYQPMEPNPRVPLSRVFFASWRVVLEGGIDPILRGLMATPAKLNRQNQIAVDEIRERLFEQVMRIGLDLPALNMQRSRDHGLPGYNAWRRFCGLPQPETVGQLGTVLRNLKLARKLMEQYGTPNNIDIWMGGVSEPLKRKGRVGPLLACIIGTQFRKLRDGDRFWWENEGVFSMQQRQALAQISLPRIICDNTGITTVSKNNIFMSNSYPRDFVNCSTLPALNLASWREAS
T4 sequence (P05164 165-273 limits assumed): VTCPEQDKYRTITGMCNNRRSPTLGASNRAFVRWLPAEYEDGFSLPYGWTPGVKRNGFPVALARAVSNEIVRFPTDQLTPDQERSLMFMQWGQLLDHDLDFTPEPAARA
T3 sequence (P07711 114-333): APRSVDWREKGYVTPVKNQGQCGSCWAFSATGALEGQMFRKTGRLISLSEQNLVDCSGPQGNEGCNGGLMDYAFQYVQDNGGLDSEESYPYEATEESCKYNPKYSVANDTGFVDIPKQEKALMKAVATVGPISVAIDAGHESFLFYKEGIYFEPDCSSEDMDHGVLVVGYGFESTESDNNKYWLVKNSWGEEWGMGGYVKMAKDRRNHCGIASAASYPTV
T1 sequence (P00772 27-266): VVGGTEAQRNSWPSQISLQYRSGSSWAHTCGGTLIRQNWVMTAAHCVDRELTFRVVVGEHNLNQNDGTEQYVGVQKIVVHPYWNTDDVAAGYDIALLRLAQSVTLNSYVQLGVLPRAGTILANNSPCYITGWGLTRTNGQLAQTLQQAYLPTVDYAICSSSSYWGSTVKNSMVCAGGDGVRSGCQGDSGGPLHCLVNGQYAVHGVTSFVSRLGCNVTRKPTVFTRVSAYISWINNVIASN

Which results are given for COc1ccc(C(=O)N[C@H](C(=O)N2CCC[C@H]2C(=O)N[C@H](C(=O)C(F)(F)F)C(C)C)C(C)C)cc1 [compound II]?
Ki (pancreatic elastase): 0.2 µM; IC50 (pancreatic elastase; FIG. 1): 1 µM; dose to inhibit 50% of the enzyme activity (neutrophil elastase; intravenous administration): 0.59 mg/kg of body weight; dose to inhibit 50% of the enzyme activity (neutrophil elastase; oral administration): 4.9 mg/kg of body weight; inhibition of neutrophil elastase (neutrophil elastase; oral administration of 10 mg/kg of body weight): 84%; morphological changes like those observed in acute pancreatitis ([1]; compound II alone, no caerulein): did not lead to any morphological changes; development of the interstitial edema and the intracellular vacuolization [1, 8]: prevented; number of infiltrating inflammatory cells in pancreas [1, 8]: greatly reduced; morphological differences in lung tissue (alveolar fluid, thickening, hyperemia, neutrophil infiltration) [2]: reduced; MPO activity in lung tissue ([2]; effect greater after twelve than four hours): significant reduction; influence on cathepsin B activity (cathepsin B): not significantly influenced; influence on cathepsin B activity (cathepsin B; listed as Compound II): does not inhibit; influence on cathepsin L activity (cathepsin L): not significantly influenced; influence on cathepsin L activity (cathepsin L; listed as Compound II): does not inhibit; reduction in MPO activity in pancreatic tissue [3]: more than 50%; AUC ([4]; intravenous, read-out: intravenous AUC): 1360 to 3180 ng·h/mL; bioavailability ([4]; oral versus intravenous AUC, read-out: percentage bioavailability): 26 to 82%; AUC ([4]; oral, read-out: oral bioavailability (AUC)): 355 to 1400 ng·h/mL; half-life ([4]; rats, hamsters and dogs, read-out: biological half-life): 0.82 to 2 h; amylase activity in serum [5]: significantly reduced; influence on myeloperoxidase activity (myeloperoxidase): not significantly influenced; also recorded: excluded; influence on myeloperoxidase activity (myeloperoxidase; listed as Compound II): does not inhibit; inhibitory activity for human neutrophil elastase by comparison with pancreatic elastase [6]: five times higher; influence on trypsin activity (trypsin): not significantly influenced; influence on trypsin activity (trypsin; listed as Compound II): does not inhibit; change in the water content of the pancreas ([7]; compound II alone (control 2), no caerulein): did not lead to a significant change; formation of pancreatic edemas (water content) ([7]; four and twelve hours after starting caerulein infusion): significant reduction
